# According to ChEMBL document CHEMBL5331124, “Degradation of Hexokinase 2 Blocks Glycolysis and Induces GSDME-Dependent Pyroptosis to Amplify Immunogenic Cell Death for Breast Cancer Therapy” (J Med Chem, 2023):
# Calls of active or inactive are those of the source. The calls are words filed in the database; no cut-off is given here.
# Key:
# [1] = Toxicity in BALB/c mouse implanted with mouse 4T1 cells assessed as change in body weight at 50 mg/kg, ip measured after 23 days in presence of cisplatin; assay type: organism-based; conditions: in vivo, 552 h, time 23 day
# [2] = Toxicity in BALB/c mouse implanted with mouse 4T1 cells assessed as pathological changes in kidney at 50 mg/kg, ip measured after 25 days by Hematoxylin -eosin staining based analysis; assay type: organism-based; conditions: in vivo, 600 h, time 25 day
# 4T1 [3] = test: Cytotoxicity against mouse 4T1 cells assessed as inhibition of cell growth at 1 to 100 uM incubated for 48 hrs by CCK-8 assay; assay type: functional, cell-based; conditions: dose 1-100 µM
# 4T1 [4] = test: Induction of pyroptosis in mouse 4T1 cells assessed as early apoptotic cells at 20 uM incubated for 36 hrs by annexin V-FITC staining based flow cytometry analysis (reference value: 4.76 %); assay type: functional
# 4T1 [5] = test: Antitumor immunity against mouse 4T1 cells implanted in BALB/c mouse model assessed as accumulation of CRT at 20 uM measured for 36 hrs by ELISA analysis; assay type: functional, cell-based
# [6] = target: T1, Hexokinase-2 (Homo sapiens) (UniProt P52789); test: Induction of HK2 degradation in human MDA-MB-231 cells assessed as increase in VDAC expression at 20 uM measured for 36 hrs by Western blot analysis; assay type: cell-based
# T1 sequence (whole entry): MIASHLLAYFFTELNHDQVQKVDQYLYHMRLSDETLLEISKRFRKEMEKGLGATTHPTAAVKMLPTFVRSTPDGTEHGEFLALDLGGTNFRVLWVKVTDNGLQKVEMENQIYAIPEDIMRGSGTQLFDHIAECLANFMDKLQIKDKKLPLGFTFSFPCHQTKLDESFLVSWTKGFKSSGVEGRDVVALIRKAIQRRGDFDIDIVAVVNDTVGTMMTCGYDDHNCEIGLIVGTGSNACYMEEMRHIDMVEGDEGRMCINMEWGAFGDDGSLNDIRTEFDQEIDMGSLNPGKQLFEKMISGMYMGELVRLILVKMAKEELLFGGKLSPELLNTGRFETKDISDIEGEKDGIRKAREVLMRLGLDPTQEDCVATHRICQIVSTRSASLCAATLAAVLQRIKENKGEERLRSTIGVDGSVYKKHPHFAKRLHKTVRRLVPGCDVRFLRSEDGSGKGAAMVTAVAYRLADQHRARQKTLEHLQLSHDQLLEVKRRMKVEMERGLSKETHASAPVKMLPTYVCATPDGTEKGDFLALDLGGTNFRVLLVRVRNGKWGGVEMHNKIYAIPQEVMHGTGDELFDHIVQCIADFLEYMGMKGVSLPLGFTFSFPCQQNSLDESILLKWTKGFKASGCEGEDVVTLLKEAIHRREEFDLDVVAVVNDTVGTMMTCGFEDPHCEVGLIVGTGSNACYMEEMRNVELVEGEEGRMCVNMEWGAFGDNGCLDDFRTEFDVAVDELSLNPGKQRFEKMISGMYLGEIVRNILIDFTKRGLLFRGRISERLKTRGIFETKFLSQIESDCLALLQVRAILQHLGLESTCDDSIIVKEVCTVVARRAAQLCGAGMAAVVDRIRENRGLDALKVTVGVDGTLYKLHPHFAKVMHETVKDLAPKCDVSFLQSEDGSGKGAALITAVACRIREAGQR
# 4T1 [7] = test: Antitumor immunity against mouse 4T1 cells implanted in BALB/c mouse model assessed as increase in HMGB1 release in tumor; assay type: functional, cell-based
# MDA-MB-231 = test: Antitumor activity against human MDA-MB-231 cells xenografted in BALB/c nude mouse assessed as reduction in HK2 expression level at 50 mg/kg, ip measured after 28 days; assay type: functional, organism-based; conditions: time 28.0 day
# [8] = Toxicity in BALB/c nude mouse xenografted with human MDA-MB-231 cells assessed as effect on mean corpuscular volume at 50 mg/kg, ip measured after 30 days by routine blood test; assay type: organism-based; conditions: in vivo, 720 h, time 30 day
# [9] = Toxicity in BALB/c mouse implanted wth mouse 4T1 cells assessed as effect on body weight at 50 mg/kg, ip measured after 23 days; assay type: organism-based; conditions: in vivo, 552 h, time 23 day
# [10] = Toxicity in BALB/c nude mouse xenografted with human MDA-MB-231 cells assessed as body weight loss at 50 mg/kg, ip measured after 30 days; assay type: organism-based; conditions: in vivo, 720 h, time 30 day
# 4T1 [11] = test: Induction of mitochondrial damage in mouse 4T1 cells assessed as reduction in lactic acid production at 20 uM measured for 36 hrs; assay type: functional, cell-based
# 4T1 [12] = test: Antitumor activity against mouse 4T1 cells implanted in BALB/c mouse model assessed as reduction tumor cell proliferation at 50 mg/kg, ip measured after 25 days by H and E staining based analysis; assay type: functional, organism-based; conditions: time 25.0 day
# 4T1 [13] = test: Antitumor immunity against mouse 4T1 cells implanted in BALB/c mouse model assessed as increase in LDH release in cell supernatant at 20 uM measured for 36 hrs by ELISA analysis; assay type: functional, cell-based
# 4T1 [14] = test: Antitumor activity against mouse 4T1 cells implanted in BALB/c mouse model assessed as reduction in HK2 expression level at 50 mg/kg, ip measured after 25 days by Western blot analysis; assay type: functional, organism-based; conditions: time 25.0 day
# [15] = Toxicity in BALB/c nude mouse xenografted with human MDA-MB-231 cells assessed as effect on mean corpuscular hemoglobin at 50 mg/kg, ip measured after 30 days by routine blood test; assay type: organism-based; conditions: in vivo, 720 h, time 30 day
# HUVEC-T1 cell = test: Inhibition of colony formation in human HUVEC-T1 cell at 5 to 20 uM incubated for 48 hrs by giemsa staining based analysis; assay type: functional; conditions: dose 5-20 µM
# 4T1 [16] = test: Antitumor immunity activity against mouse 4T1 cells implanted in BALB/c mouse assessed as increase in proportion of cytotoxic CD8 positive T cells in tumor by flow cytometry analysis; assay type: functional, cell-based
# [17] = target: T1, Hexokinase-2 (Homo sapiens); test: Induction of HK2 degradation in human MDA-MB-231 cells at 20 uM measured for 36 hrs by Western blot analysis; assay type: cell-based
# 4T1 [18] = test: Antiproliferative activity against mouse 4T1 cells expressing SiHK2 assessed as cell growth inhibition measured for 72 hrs by MTT assay; assay type: functional, cell-based
# [19] = Toxicity in BALB/c mouse implanted with mouse 4T1 cells assessed as effect on mean corpuscular hemoglobin at 50 mg/kg, ip measured after 25 days by routine blood test; assay type: organism-based; conditions: in vivo, 600 h, time 25 day
# 4T1 [20] = test: Antitumor immunity against mouse 4T1 cells implanted in BALB/c mouse model assessed as upregulation of Il-1beta expression in mouse tumor by ELISA analysis; assay type: functional, cell-based
# [21] = Toxicity in BALB/c nude mouse xenografted with human MDA-MB-231 cells assessed as effect on red blood cells at 50 mg/kg, ip measured after 30 days by routine blood test; assay type: organism-based; conditions: in vivo, 720 h, time 30 day
# [22] = Toxicity in BALB/c mouse implanted with mouse 4T1 cells assessed as effect on red blood cells at 50 mg/kg, ip measured after 25 days by routine blood test; assay type: organism-based; conditions: in vivo, 600 h, time 25 day
# 4T1 [23] = test: Antitumor immunity against mouse 4T1 cells implanted in BALB/c mouse model assessed as increase in HMGB1 release in cell supernatant at 20 uM measured for 36 hrs by ELISA analysis; assay type: functional, cell-based
# 4T1 [24] = test: Antitumor activity against mouse 4T1 cells implanted in BALB/c mouse assessed as reduction in tumor growth at 50 mg/kg, ip measured after 23 days in presence of cisplatin; assay type: functional, organism-based; conditions: time 23.0 day
smiles,measurement,setting,value
O=C1CCC(N2C(=O)c3cccc(NCCCCNC(=O)c4nn(Cc5ccc(Cl)cc5Cl)c5ccccc45)c3C2=O)C(=O)N1 (stereo unspecified),Activity,[1],Non-Toxic
same,Activity,[2],Non-Toxic
same,Activity,4T1 [3],Active
same,Activity,4T1 [4],9.85%
same,Activity,4T1 [5],Active
same,Activity,[6],Active
same,Activity,4T1 [7],Active
same,Activity,MDA-MB-231,Active
same,Activity,[8],Non-Toxic
same,Activity,[9],Non-Toxic
same,Activity,[10],Non-Toxic
same,Activity,4T1 [11],Active
same,Activity,4T1 [12],Active
same,Activity,4T1 [13],Active
same,Activity,4T1 [14],Active
same,Activity,[15],Non-Toxic
same,inhibition,HUVEC-T1 cell,inactive
same,Activity,4T1 [16],Active
same,Activity,[17],Active
same,Activity,4T1 [18],inactive
same,Activity,[19],Non-Toxic
same,Activity,4T1 [20],Active
same,Activity,[21],Non-Toxic
same,Activity,[22],Non-Toxic
same,Activity,4T1 [23],Active
same,Activity,4T1 [24],Active
